Test results published in patent US5736376A, “Recombinant endothelin converting enzyme-2 and its use in ECE inhibitor screening” (Board of Regents, The University of Texas System, priority 1995, dated 1998).
Entries after “also recorded” stand apart in the source; their conditions may differ. Where two headings read alike, the source gives them in different places. Where no end group is shown, it is not given here.

Columns and labels:
[1] = cartilage; literature; cited from earlier work
[2] = Stability of big and mature endothelin isopeptides with crude membrane proteins, ECE-2 assay conditions (pH 5.6); type: physicochemical
ECE-2 [3] = target: T1, ECE-2 (Bos taurus, UniProt P0DPE2); test: Substrate kinetics and isopeptide substrate selectivity of ECE-2; type: biochemical, bovine
T1 construct: solubilized crude membranes or live cells
T1 sequence (P0DPE2 97-883): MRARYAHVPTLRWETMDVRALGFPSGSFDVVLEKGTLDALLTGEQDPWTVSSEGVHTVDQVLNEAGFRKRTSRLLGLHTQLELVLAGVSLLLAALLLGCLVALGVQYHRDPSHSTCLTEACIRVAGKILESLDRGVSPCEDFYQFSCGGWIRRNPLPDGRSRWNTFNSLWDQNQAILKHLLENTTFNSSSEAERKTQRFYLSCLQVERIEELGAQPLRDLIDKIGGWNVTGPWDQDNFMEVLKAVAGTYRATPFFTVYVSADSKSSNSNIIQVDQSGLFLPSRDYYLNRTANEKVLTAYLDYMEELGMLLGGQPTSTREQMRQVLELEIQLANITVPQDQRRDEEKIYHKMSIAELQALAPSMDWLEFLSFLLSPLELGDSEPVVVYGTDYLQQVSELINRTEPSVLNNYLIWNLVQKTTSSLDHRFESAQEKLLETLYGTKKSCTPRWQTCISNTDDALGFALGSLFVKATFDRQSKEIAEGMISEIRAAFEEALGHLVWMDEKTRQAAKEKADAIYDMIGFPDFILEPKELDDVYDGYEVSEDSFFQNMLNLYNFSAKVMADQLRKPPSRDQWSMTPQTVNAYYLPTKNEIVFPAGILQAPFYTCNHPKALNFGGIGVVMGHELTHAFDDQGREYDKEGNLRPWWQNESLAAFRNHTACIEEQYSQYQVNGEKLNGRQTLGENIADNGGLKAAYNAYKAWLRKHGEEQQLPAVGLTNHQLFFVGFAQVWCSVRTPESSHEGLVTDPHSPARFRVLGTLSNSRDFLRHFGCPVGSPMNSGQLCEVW
Protocol: Isopeptide substrate selectivity of ECE-2. Substrates are: closed circles, big ET-1 (1-38); closed squares, big ET-2 (1-38); and closed triangles, big ET-3 (1-41 Amide). Activity is reported as conversion (fmol/30 min) vs μg of membrane protein.
Solubilized crude membranes were prepared in parallel from CHO/ECE-2 and CHO/ECE-1 cells as described (Xu et al., 1994). […] Standard reaction mixtures for the ECE-2 assay (50 μl) contained 0.1M 2-[N-morpholino]ethanesulfonic acid (MES) buffer (pH 5.5), 0.5M NaCl, 0.1 μM human big ET-1 and an enzyme fraction. […] For the pH profiling and isopeptide selectivity studies, the buffer solution (0.1M) or the substrate (0.1 μM) was substituted as designated. […] Reactions were started by the addition of substrate, and incubated at 37° C. for 30 min in siliconized 0.5-ml microcentrifuge tubes. […] The mixture was then directly assayed for mature ET-1 as described (Suzuki et al., 1989). Duplicate assay wells were used for each enzyme reaction. For big ET-2 and big ET-3 conversion assays, mature ET-1 EIA (which fully cross-reacts with mature ET-2) and mature ET-3 EIA were used with human ET-2 and ET-3 as standards, respectively (Matsumoto et al., 1989). Protein concentrations were determined by the Bradford method (Bio-Rad) using IgG as standard.

ECE-1 [4] = target: T2, ECE-1 (Bos taurus, UniProt P42891); test: Substrate kinetics and isopeptide substrate selectivity of ECE-1; type: biochemical, bovine; details: big ET-1 0.01-10 μM; 20 μg crude membrane proteins, 30 min; read-out: apparent Km of ECE-1
T2 construct: made in house
T2 sequence (P42891 1-754): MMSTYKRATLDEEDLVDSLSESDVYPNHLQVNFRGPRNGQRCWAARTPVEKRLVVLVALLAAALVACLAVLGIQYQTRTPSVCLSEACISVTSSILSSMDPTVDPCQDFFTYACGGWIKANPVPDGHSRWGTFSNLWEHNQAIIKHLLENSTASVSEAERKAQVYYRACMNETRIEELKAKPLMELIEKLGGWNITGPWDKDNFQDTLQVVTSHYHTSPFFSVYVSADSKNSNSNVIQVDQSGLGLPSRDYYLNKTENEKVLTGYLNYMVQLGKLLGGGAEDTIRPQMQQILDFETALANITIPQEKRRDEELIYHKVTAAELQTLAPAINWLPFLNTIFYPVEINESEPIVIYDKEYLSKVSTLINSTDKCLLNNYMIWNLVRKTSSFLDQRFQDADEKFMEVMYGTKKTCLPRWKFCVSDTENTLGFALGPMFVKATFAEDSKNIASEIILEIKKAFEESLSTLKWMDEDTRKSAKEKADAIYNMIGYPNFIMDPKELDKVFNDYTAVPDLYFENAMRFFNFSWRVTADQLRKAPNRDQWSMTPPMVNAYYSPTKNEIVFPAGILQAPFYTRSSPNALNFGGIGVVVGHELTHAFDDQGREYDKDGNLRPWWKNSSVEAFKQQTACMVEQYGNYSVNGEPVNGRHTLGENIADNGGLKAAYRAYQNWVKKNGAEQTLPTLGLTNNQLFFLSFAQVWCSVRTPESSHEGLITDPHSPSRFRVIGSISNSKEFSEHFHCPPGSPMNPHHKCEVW
Protocol: Solubilized crude membranes were prepared in parallel from CHO/ECE-2 and CHO/ECE-1 cells as described (Xu et al., 1994). For protease inhibitor studies, membranes were prepared without protease inhibitors. Standard reaction mixtures for the ECE-2 assay (50 μl) contained 0.1M 2-[N-morpholino]ethanesulfonic acid (MES) buffer (pH 5.5), 0.5M NaCl, 0.1 μM human big ET-1 and an enzyme fraction. ECE-1 assay reactions contained 0.1M phosphate buffer (pH 6.8) instead of the MES buffer. For the pH profiling and isopeptide selectivity studies, the buffer solution (0.1M) or the substrate (0.1 μM) was substituted as designated. For the inhibitor studies, the reactions were preincubated at 37° C. with protease inhibitor or vehicle for 15 min. Reactions were started by the addition of substrate, and incubated at 37° C. for 30 min in siliconized 0.5-ml microcentrifuge tubes. […] The mixture was then directly assayed for mature ET-1 as described (Suzuki et al., 1989). Duplicate assay wells were used for each enzyme reaction. For big ET-2 and big ET-3 conversion assays, mature ET-1 EIA (which fully cross-reacts with mature ET-2) and mature ET-3 EIA were used with human ET-2 and ET-3 as standards, respectively (Matsumoto et al., 1989). Protein concentrations were determined by the Bradford method (Bio-Rad) using IgG as standard.

ECE-1 [5] = target: T2, ECE-1; details: high concentrations; Xu et al., 1994; cited from earlier work
[6] = test system: cultured endothelial cells; details: cited from earlier work
ECE-1 [7] = target: T2, ECE-1; test: Protease inhibitor assay of ECE-1, solubilized CHO/ECE-1 membranes, big ET-1 conversion, pH 6.8; type: biochemical, bovine; details: for inhibition of ECE-1: sensitivity to protease inhibitors, Table 2
Protocol: Solubilized crude membranes were prepared in parallel from CHO/ECE-2 and CHO/ECE-1 cells as described (Xu et al., 1994). For protease inhibitor studies, membranes were prepared without protease inhibitors. Standard reaction mixtures for the ECE-2 assay (50 μl) contained 0.1M 2-[N-morpholino]ethanesulfonic acid (MES) buffer (pH 5.5), 0.5M NaCl, 0.1 μM human big ET-1 and an enzyme fraction. ECE-1 assay reactions contained 0.1M phosphate buffer (pH 6.8) instead of the MES buffer. For the pH profiling and isopeptide selectivity studies, the buffer solution (0.1M) or the substrate (0.1 μM) was substituted as designated. For the inhibitor studies, the reactions were preincubated at 37° C. with protease inhibitor or vehicle for 15 min. Reactions were started by the addition of substrate, and incubated at 37° C. for 30 min in siliconized 0.5-ml microcentrifuge tubes. […] The mixture was then directly assayed for mature ET-1 as described (Suzuki et al., 1989). Duplicate assay wells were used for each enzyme reaction. […] Protein concentrations were determined by the Bradford method (Bio-Rad) using IgG as standard.

big endothelins = details: whole animal preparations and isolated perfused tissues; cited from earlier work
ECE-2 [8] = target: T1, ECE-2; test: Protease inhibitor assay of ECE-2, solubilized CHO/ECE-2 membranes, big ET-1 conversion, pH 5.5; type: biochemical, bovine; details: for IC50: pH 5.5
Protocol: Solubilized crude membranes were prepared in parallel from CHO/ECE-2 and CHO/ECE-1 cells as described (Xu et al., 1994). For protease inhibitor studies, membranes were prepared without protease inhibitors. Standard reaction mixtures for the ECE-2 assay (50 μl) contained 0.1M 2-[N-morpholino]ethanesulfonic acid (MES) buffer (pH 5.5), 0.5M NaCl, 0.1 μM human big ET-1 and an enzyme fraction. […] For the inhibitor studies, the reactions were preincubated at 37° C. with protease inhibitor or vehicle for 15 min. Reactions were started by the addition of substrate, and incubated at 37° C. for 30 min in siliconized 0.5-ml microcentrifuge tubes. […] The mixture was then directly assayed for mature ET-1 as described (Suzuki et al., 1989). Duplicate assay wells were used for each enzyme reaction.

[9] = test system: this family of metalloproteases; details: Opgenorth et al., 1992; cited from earlier work
ECE-2 [10] = target: T1, ECE-2; test: Double-transfection live cell assay: mature ET-1 secretion by CHO/ECE-2 cells transfected with preproET-1 cDNA; type: cell-based, bovine
Protocol: Production of mature ET-1 by CHO/ECE-2 cells transiently transfected with preproET-1 cDNA: Cleavage of endogenously produced big ET-1. Doubly transfected cells were cultured for 12 h in the absence or presence of the designated concentrations of ECE inhibitors, and mature ET-1 in the conditioned medium was determined. Negative control studies with parental CHO cells are shown by dashed lines.
CHO/ECE-2 cells and untransfected CHO cells were transiently transfected in parallel with a preproET-1 construct, and mature ET-1 secreted from these cells into the medium was determined by EIA.
CHO-K1 cells were cultured as described (Xu et al., 1994). Since many batches of tissue culture-grade trypsin preparations contained high levels of metalloprotease contaminants with an ECE-like activity, a highly purified crystallized preparation of trypsin (Sigma, Catalog No. T7418) was dissolved in phosphate-buffered saline at 0.013% (w/v) and used for all trypsinization procedures. […] Twelve hours after the transient transfection, cells were refed with fresh medium with or without ECE inhibitors. The medium was conditioned for an additional 12 h and directly subjected to enzyme immunoassay (EIA) for mature ET-1 (Suzuki et al., 1989).

ECE-1 [11] = target: T2, ECE-1; test: Coculture of CHO/ECE-1 and CHO/preproET-1 cells: cleavage of exogenously supplied big ET-1; type: cell-based, bovine
Protocol: (§1) Production of mature ET-1 by CHO/ECE-1-CHO/preproET-1 and CHO/ECE-2-CHO/preproET-1 cocultures: Cleavage of exogenously supplied big ET-1. […] Negative control experiments were performed by coculturing parental CHO cells with CHO/preproET-1 cells. Open circles, CHO/ET-1+CHO/ECE-1 (Phos); closed circles, CHO/ET-1+CHO/ECE-1 (FR); open squares, CHO/ET-1+CHO/ECE-2 (Phos); closed squares, CHO/ET-1+CHO/ECE-2 (FR); open triangles, CHO/ET-1+CHO-K1 (Phos).
(§2) This was tested by coculturing the stable transfectant CHO/preproET-1 cells with either CHO/ECE-1 or CHO/ECE-2 cells, and determining the amount of mature ET-1 in the medium.

ECE-2 [12] = target: T1, ECE-2; test: Coculture of CHO/ECE-2 and CHO/preproET-1 cells: cleavage of exogenously supplied big ET-1; type: cell-based, bovine; details: up to 100 μM
Protocol: as §1, §2

big ET-1 [13] = test: pH profile of ECE activity; type: biochemical, human
Protocol: FIG. 1B. pH profile of ECE-2. […] Buffers are: open squares, acetate; closed squares, MES; open circles, phosphate; closed circles, Tris; open triangles, glycine.
FIG. 1B is a pH profile of ECE-2. Optimal activity of ECE-2 is at pH 5.5 in contrast to the previously discovered ECE-1, which has optimal activity at pH 6.8. […] In all subsequent studies, ECE-2 assays were performed at pH 5.5. […] A majority of the ECE-2 activity in the CHO/ECE-2 cell homogenates was found in the membrane fraction. No significant ECE-2 activity was detected in the culture supernatants from CHO/ECE-2 cells.
Solubilized crude membranes were prepared in parallel from CHO/ECE-2 and CHO/ECE-1 cells as described (Xu et al., 1994). For protease inhibitor studies, membranes were prepared without protease inhibitors. Standard reaction mixtures for the ECE-2 assay (50 μl) contained 0.1M 2-[N-morpholino]ethanesulfonic acid (MES) buffer (pH 5.5), 0.5M NaCl, 0.1 μM human big ET-1 and an enzyme fraction. ECE-1 assay reactions contained 0.1M phosphate buffer (pH 6.8) instead of the MES buffer. For the pH profiling and isopeptide selectivity studies, the buffer solution (0.1M) or the substrate (0.1 μM) was substituted as designated. […] Protein concentrations were determined by the Bradford method (Bio-Rad) using IgG as standard.

big ET-1 [14] = details: cited from earlier work

Q: With “matrix metalloproteinase-3: matrix metalloprotease in cartilage, matrix metalloproteinase-3 (MMP-3; stromelysin-1)” as the molecule, how does the pH optimum [1] read?
A: The pH optimum was 5.3-5.5.

Q: With “big ET-1: Synthetic human big ET-1[1-38] (CSCSSLMDKECVYFCHLDIIWVNTPEHVVPYGLGSPRS; ends and bridges not checked; cysteine pairing not given here; UniProt P05305 53-90, looked up)” as the molecule, how does the “rate of degradation among isopeptides” value [2] read?
A: Its value is “degraded at similar rates”.

Q: What about the “relative rate of cleavage by ECE-2” value (ECE-2 [3]; 20-40 μg membrane proteins, optimal pH) of the same molecule?
A: Its value is 100%.

Q: What about the Km (ECE-2 [3]; big ET-1 0.01-10 μM, 20 μg crude membrane proteins, 30 min, read-out: apparent Km of ECE-2) of the same molecule?
A: Its Km is 1 to 2 µM.

Q: What about the Km (ECE-1 [4]) of the same molecule?
A: Its Km is 1 to 2 µM.

Q: Which “inhibition of big ET-1 conversion in ECE-1/preproET-1 doubly transfected cells” value (ECE-1 [5]) does the source give for CC(C)C[C@H](NP(=O)(O)O[C@@H]1O[C@@H](C)[C@H](O)[C@@H](O)[C@H]1O)C(=O)N[C@@H](Cc1c[nH]c2ccccc12)C(=O)O [Phosphoramidon] here?
A: The value was “capable of inhibiting the conversion of big ET-1”.

Q: What about the “inhibition of secretion of mature ET-1 / processing of endogenous big ET-1 (words)” value [6] of the same molecule?
A: Its value is “inhibit the secretion of mature ET-1”.

Q: What about the “inhibition of secretion of mature ET-1 / processing of endogenous big ET-1 (words)” value ([6]; listed as phosphoramidon) of the same molecule?
A: The value was “inhibited”.

Q: And the “inhibition of ECE-1” value (ECE-1 [7])?
A: Its value is “inhibited”.

Q: What about the “inhibition of vasopressor actions of exogenous big endothelins” value (big endothelins) of the same molecule?
A: The value was “inhibited”.

Q: What about the IC50 (ECE-2 [8]; in vitro (test tube)) of the same molecule?
A: The IC50 was 0.004 µM.

Q: And the type of inhibition [9]?
A: The type of inhibition was “competitive inhibitor”.

Q: What about the IC50 (ECE-2 [10]; production of mature ET-1, 12 h, ECE-2-preproET-1 double transfected cells, read-out: apparent IC50, live cell assay, CHO/ECE-2) of the same molecule?
A: Its IC50 is about 20 µM.

Q: For COc1c2c(c(O)c3c1C(O)Cc1cc(CC(C)O)c(C(=O)O)c(O)c1-3)C(=O)c1cccc(O)c1C2=O (stereo not drawn) [FR901533, 1,6,9,14-tetrahydroxy-3-(2-hydroxypropyl)-7-methoxy-8,13-dioxo-5,6,8,13-tetrahydro-benzo[α]naphthacene-2-carboxylate .cndot. Na], which IC50 (ECE-1 [11]) is on record?
A: Its IC50 is about 1 µM.

Q: And the IC50 (ECE-1 [7]; in vitro, pH 6.8)?
A: The IC50 was 2 µM.

Q: What about the “inhibition of ECE-1” value (ECE-1 [7]) of the same molecule?
A: The value was “inhibited”.

Q: What about the “inhibition of ECE-2” value (ECE-2 [8]; in vitro sensitivity to inhibitors) of the same molecule?
A: Its value is “inhibited; also recorded: efficiently inhibits the conversion of big ET-1 by ECE-2 in vitro”.

Q: And the IC50 (ECE-2 [8]; in vitro)?
A: The IC50 was 3 µM.

Q: What about the “inhibition of conversion in transfected CHO/ECE-2 cells” value (ECE-2 [10]; added to medium at up to 1 mM) of the same molecule?
A: The value was “did not appreciably inhibit the conversion”.

Q: What about the “inhibition of mature peptide production, CHO/ECE-2 coculture” value (ECE-2 [12]) of the same molecule?
A: Its value is “not inhibited”.

B1: ECE-2: novel membrane-bound metalloprotease; 787-amino-acid polypeptide, SEQ ID NO:2 (protein)
chain: MRARYAHVPTLRWETMDVRALGFPSGSFDVVLEKGTLDALLTGEQDPWTVSSEGVHTVDQVLNEAGFRKRTSRLLGLHTQLELVLAGVSLLLAALLLGCLVALGVQYHRDPSHSTCLTEACIRVAGKILESLDRGVSPCEDFYQFSCGGWIRRNPLPDGRSRWNNSNSLWDQNQAILKHLLENTTFNSSSEAERKTQRFYLSCLQVERIEELGAHALRDLIDKIGGWNVTGPWDQDNFMEVLKAVAGTYRATPFFTVYVSADSKSSNSNIIQVDQSGLFLPSRDYYLNRTANEKVLTAYLDYMEELGMLLGGQPTSTREQMRQVLELEIQLANITVPQDQRRDEEKIYHKMSIAELQALAPSMDWLEFLSFLLSPLELGDSEPVVVYGTDYLQQVSELINRTEPSVLNNYLIWNLVQKTTSSLDHRFESAQEKLLETLYGTKKSCTPRWQTCISNTDDALGFALGSLFVKATFDRQSKEIAEGMISEIRVAFEEALGHLVWMDEKTRQAAKEKADAIYDMIGFPDFILEPKELDDVYDGYEVSEDSFFQNMLNLYNFSAKVMADQLRKPPSRDQWSMTPQTVNAYYLPTKNEIVFPAGILQAPFYTCNHPQALNFGGIGVVMGHELTHAFDDQGREYDKEGNLRPWWQNESLAAFRNHTACIEEQYSQYQVNGEKLNGRQTLGENIADNGGLKAAYNAYKAWLRKHGEEQQLPAVGLTNHQLFFVGFAQVWCSVRTPESSHEGLVTDPHSPARFRVLGTLSNSRDFLRHFGCPVGSPMNSGQLCEVW
Q: With B1 as the molecule, how does the “total endothelin peptides converted to mature ET-1” value (ECE-2 [10]; double-transfection assays) read?
A: Its value is “up to 40%”.

Q: And the “pH of optimal activity” value (big ET-1 [13]; conversion of big ET-1)?
A: Its value is 5.5.

Q: And the “activity at neutral pH (6.8)” value (big ET-1 [13]; standard ECE-1 assay)?
A: Its value is “virtually inactive”.

B2: ECE-1: type II membrane-bound metalloprotease that processed endogenously produced big ET-1 (protein, UniProt P42892 1-770, looked up)
Endothelin-converting enzyme 1: MRGVWPPPVSALLSALGMSTYKRATLDEEDLVDSLSEGDAYPNGLQVNFHSPRSGQRCWAARTQVEKRLVVLVVLLAAGLVACLAALGIQYQTRSPSVCLSEACVSVTSSILSSMDPTVDPCHDFFSYACGGWIKANPVPDGHSRWGTFSNLWEHNQAIIKHLLENSTASVSEAERKAQVYYRACMNETRIEELRAKPLMELIERLGGWNITGPWAKDNFQDTLQVVTAHYRTSPFFSVYVSADSKNSNSNVIQVDQSGLGLPSRDYYLNKTENEKVLTGYLNYMVQLGKLLGGGDEEAIRPQMQQILDFETALANITIPQEKRRDEELIYHKVTAAELQTLAPAINWLPFLNTIFYPVEINESEPIVVYDKEYLEQISTLINTTDRCLLNNYMIWNLVRKTSSFLDQRFQDADEKFMEVMYGTKKTCLPRWKFCVSDTENNLGFALGPMFVKATFAEDSKSIATEIILEIKKAFEESLSTLKWMDEETRKSAKEKADAIYNMIGYPNFIMDPKELDKVFNDYTAVPDLYFENAMRFFNFSWRVTADQLRKAPNRDQWSMTPPMVNAYYSPTKNEIVFPAGILQAPFYTRSSPKALNFGGIGVVVGHELTHAFDDQGREYDKDGNLRPWWKNSSVEAFKRQTECMVEQYSNYSVNGEPVNGRHTLGENIADNGGLKAAYRAYQNWVKKNGAEHSLPTLGLTNNQLFFLGFAQVWCSVRTPESSHEGLITDPHSPSRFRVIGSLSNSKEFSEHFRCPPGSPMNPPHKCEVW
Q: For B2, which “pH optimum of previously discovered ECE-1” value (big ET-1 [14]) is on record?
A: Its value is 6.8.
